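Each compound was tested at five concentrations against cells in 96-well plates for 48 hours. The concentration for 50% growth inhibition is given as GI50. TGI: concentration producing complete growth inhibition.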
Legend:
Assay in all cases: growth of human tumour cells (NCI), 48 h
[1] = system: A498 renal
[2] = system: SK-MEL-2 melanoma
[3] = system: COLO 205 colon
[4] = system: MOLT-4 leukemia
[5] = system: KM12 colon
[6] = system: HL-60(TB) leukemia
[7] = system: K-562 leukemia
[8] = system: HCT-15 colon
[9] = system: HT29 colon
[10] = system: UACC-257 melanoma
[11] = system: NCI-H226 lung
[12] = system: SF-539 CNS
[13] = system: T-47D breast
[14] = system: MDA-MB-435
[15] = system: HOP-92 NSCLC
[16] = system: HOP-62 NSCLC
[17] = system: MCF7 breast
[18] = system: SNB-19 CNS
[19] = system: IGROV1 ovarian
[20] = system: SW-620 colon
[21] = system: HCC-2998 colon
[22] = system: SK-MEL-5 melanoma
[23] = system: MALME-3M melanoma
[24] = system: NCI-H522 lung
[25] = system: SF-268 CNS
[26] = system: MDA-MB-231 breast
[27] = system: EKVX NSCLC
[28] = system: SR leukemia
[29] = system: PC-3 prostate
[30] = system: TK-10 renal
[31] = system: OVCAR-3 ovarian
[32] = system: NCI-H460 lung
[33] = system: M14 melanoma
[34] = system: RPMI-8226 leukemia
[35] = system: SF-295 CNS
[36] = system: HS 578T breast
[37] = system: LOX IMVI melanoma
[38] = system: BT-549 breast
[39] = system: OVCAR-8 ovarian
[40] = system: RXF 393 renal
[41] = system: CCRF-CEM leukemia
[42] = system: OVCAR-5 ovarian
[43] = system: SNB-75 CNS
[44] = system: UO-31 renal
[45] = system: SK-MEL-28 melanoma
[46] = system: UACC-62 melanoma
[47] = system: HCT-116 colon
[48] = system: SN12C renal
[49] = system: NCI-H23 lung
[50] = system: NCI/ADR-RES ovarian
[51] = system: A549 NSCLC
[52] = system: SK-OV-3 ovarian
[53] = system: 786-0 renal
[54] = system: CAKI-1 renal
[55] = system: ACHN renal
[56] = system: DU-145 prostate
[57] = system: U251 CNS

Q: Which results are given for `Cc1nc(/N=C(\N)NC(=O)Nc2ccccc2Cl)sc1C`?
A: GI50 [1]: 249 nM; TGI [1]: 1100 nM; GI50 [2]: 571 nM; TGI [2]: 16400 nM; GI50 [3]: 474 nM; TGI [3]: 4570 nM; GI50 [4]: 492 nM; TGI [4]: > 100000 nM; GI50 [5]: 405 nM; TGI [5]: > 100000 nM; GI50 [6]: 331 nM; TGI [6]: 28900 nM; GI50 [7]: 86.1 nM; TGI [7]: > 100000 nM; GI50 [8]: 250 nM; TGI [8]: > 100000 nM; GI50 [9]: 333 nM; TGI [9]: 5320 nM; GI50 [10]: 1440 nM; TGI [10]: > 100000 nM; GI50 [11]: 1150 nM; TGI [11]: 14900 nM; GI50 [12]: 413 nM; TGI [12]: 8340 nM; GI50 [13]: 519 nM; TGI [13]: > 100000 nM; GI50 [14]: 86.8 nM; TGI [14]: 466 nM; GI50 [15]: 1540 nM; TGI [15]: 15800 nM; GI50 [16]: 505 nM; TGI [16]: 2840 nM; GI50 [17]: 359 nM; TGI [17]: > 100000 nM; GI50 [18]: 462 nM; TGI [18]: 12400 nM; GI50 [19]: 528 nM; TGI [19]: > 100000 nM; GI50 [20]: 329 nM; TGI [20]: > 100000 nM; GI50 [21]: 1250 nM; TGI [21]: > 100000 nM; GI50 [22]: 508 nM; TGI [22]: 7390 nM; GI50 [23]: 643 nM; TGI [23]: 4790 nM; GI50 [24]: 189 nM; GI50 [25]: 1350 nM; TGI [25]: > 100000 nM; GI50 [26]: 1060 nM; TGI [26]: 50300 nM; GI50 [27]: 626 nM; TGI [27]: > 100000 nM; GI50 [28]: 173 nM; TGI [28]: 35500 nM; GI50 [29]: 659 nM; TGI [29]: > 100000 nM; GI50 [30]: 1840 nM; TGI [30]: 6410 nM; GI50 [31]: 299 nM; TGI [31]: 1280 nM; GI50 [32]: 367 nM; TGI [32]: 1620 nM; GI50 [33]: 314 nM; TGI [33]: 18700 nM; GI50 [34]: 406 nM; TGI [34]: 7650 nM; GI50 [35]: 363 nM; TGI [35]: 2700 nM; GI50 [36]: 548 nM; TGI [36]: 5550 nM; GI50 [37]: 533 nM; TGI [37]: > 100000 nM; GI50 [38]: 637 nM; TGI [38]: 10300 nM; GI50 [39]: 592 nM; TGI [39]: > 40200 nM; GI50 [40]: 399 nM; TGI [40]: 2110 nM; GI50 [41]: 352 nM; TGI [41]: > 53200 nM; GI50 [42]: 1320 nM; TGI [42]: > 100000 nM; GI50 [43]: 226 nM; TGI [43]: 910 nM; GI50 [44]: 857 nM; TGI [44]: 6490 nM; GI50 [45]: 916 nM; TGI [45]: > 100000 nM; GI50 [46]: 488 nM; TGI [46]: > 100000 nM; GI50 [47]: 402 nM; GI50 [48]: 739 nM; TGI [48]: > 100000 nM; GI50 [49]: 687 nM; TGI [49]: > 74900 nM; GI50 [50]: 271 nM; TGI [50]: 3280 nM; GI50 [51]: 675 nM; TGI [51]: > 100000 nM; GI50 [52]: 735 nM; TGI [52]: 5540 nM; GI50 [53]: 639 nM; TGI [53]: 3250 nM; GI50 [54]: 435 nM; TGI [54]: 9410 nM; GI50 [55]: 638 nM; TGI [55]: 7790 nM; GI50 [56]: 621 nM; TGI [56]: 5850 nM; GI50 [57]: 439 nM; TGI [57]: 6130 nM
